Laboratory results as given in patent US12630643B2, “CD40 binding protein, bispecific conjugate thereof and method of treating cancer” (priority 2020, dated 2026).

T1: canine (dog) CD40 (Canis lupus familiaris, UniProt Q7YRL5)
T1 sequence (Q7YRL5 21-274): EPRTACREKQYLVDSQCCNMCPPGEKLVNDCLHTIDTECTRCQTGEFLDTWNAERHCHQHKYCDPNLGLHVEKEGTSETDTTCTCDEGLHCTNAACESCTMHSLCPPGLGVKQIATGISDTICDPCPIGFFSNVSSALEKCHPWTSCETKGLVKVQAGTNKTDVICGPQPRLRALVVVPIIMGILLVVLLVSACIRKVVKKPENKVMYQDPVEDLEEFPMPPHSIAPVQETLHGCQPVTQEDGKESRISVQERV

T2: Canine CD40-Fc (Canis lupus familiaris, UniProt Q7YRL5)
T2 construct: purchased Sino Biological 70105-D02H
T2 sequence (Q7YRL5 21-193 limits assumed): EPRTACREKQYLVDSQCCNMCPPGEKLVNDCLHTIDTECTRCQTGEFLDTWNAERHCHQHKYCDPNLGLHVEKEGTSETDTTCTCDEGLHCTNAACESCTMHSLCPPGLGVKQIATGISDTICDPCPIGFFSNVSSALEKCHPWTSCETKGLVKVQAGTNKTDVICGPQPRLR

B1: X-SM083-ab-2: agonistic anti-CD40 antibody 1150/1151 (WO 2015/091853) as hIgG2 (antibody)
heavy: EVQLLESGGGLVQPGGSLRLSCAASGFTFSSYAMSWVRQAPGKGLEWVSGIGGSSSYTSYADSVKGRFTISRDNSKNTLYLQMNSLRAEDTAVYYCARYYSYHMDYWGQGTLVTVSSASTKGPSVFPLAPCSRSTSESTAALGCLVKDYFPEPVTVSWNSGALTSGVHTFPAVLQSSGLYSLSSVVTVPSSNFGTQTYTCNVDHKPSNTKVDKTVERKCCVECPPCPAPPVAGPSVFLFPPKPKDTLMISRTPEVTCVVVDVSHEDPEVQFNWYVDGVEVHNAKTKPREEQFNSTFRVVSVLTVVHQDWLNGKEYKCKVSNKGLPAPIEKTISKTKGQPREPQVYTLPPSREEMTKNQVSLTCLVKGFYPSDISVEWESNGQPENNYKTTPPMLDSDGSFFLYSKLTVDKSRWQQGNVFSCSVMHEALHNHYTQKSLSLSPGK
light: DIQMTQSPSSLSASVGDHVTITCRASQSISSYLNWYQQKPGKAPKLLIYAASSLQSGVPSRFSGSGSGTDFTLTISSLQPEDFATYYCQQYGSAPPTFGQGTKLEIK
modifications: left off: a dimerising Fc or GST
notes: agonistic anti-CD40 antibody 1150/1151 (WO 2015/091853) as hIgG2

Experiments:
IBIIICI scFv = type: binding, mouse
14GIIICII scFv = type: binding, mouse
Human CD40-avi = Human CD40-avi (Homo sapiens, UniProt P25942); assay: SPR kinetic measurements (single cycle kinetics) on captured IgG2, hCD40-avi; details: 1:1 Langmuir binding model
canine (dog) CD40 = target: T1, canine (dog) CD40; details: stated in US2006-0093600; cited from earlier work
Human CD40-Fc [1] = target: T3, Human CD40-Fc (Homo sapiens, UniProt P25942); assay: SPR single cycle kinetics of Example 5, human CD40-Fc; design: purchased Sino Biological 10774-H38H; details: 1:1 Binding
Target sequence in this assay (P25942 21-193 limits assumed): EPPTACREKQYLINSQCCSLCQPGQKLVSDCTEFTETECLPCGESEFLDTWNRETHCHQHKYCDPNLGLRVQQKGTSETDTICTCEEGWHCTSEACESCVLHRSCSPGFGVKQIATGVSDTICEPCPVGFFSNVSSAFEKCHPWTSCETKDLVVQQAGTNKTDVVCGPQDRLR

Human CD40-Fc [2] = target: T3, Human CD40-Fc; assay: SPR kinetic measurements (single cycle kinetics) on captured IgG2, hCD40-Fc; details: for ka / kd: Human CD40-Fc (dimer, avidity effects may contribute)
Target sequence in this assay (P25942 21-193): as the sequence (P25942 21-193 limits assumed) above

[3] = target: CD40 ligand interaction with CD40 (Homo sapiens, UniProt P25942); details: Yu et al. 2018; WO 2015/091853; cited from earlier work
CD40 on CD19+ cells = CD40 on CD19+ cells (Homo sapiens, UniProt P25942); assay: Competitive binding with anti-CD40-FITC antibody 5C3, flow cytometry; details: 25 nM-50 nM antibody, 30 min on ice
Canine CD40-Fc = target: T2, Canine CD40-Fc; assay: SPR single cycle kinetics of Example 5, canine CD40-Fc; type: binding
Cynomolgus CD40-Fc = assay: SPR kinetic measurements (single cycle kinetics) on captured IgG2, cCD40-Fc; details: for ka / kd: Cynomolgus CD40-Fc (dimer, avidity effects may contribute)
[4] = system: human monocyte-derived DC (MoDC); assay: MoDC activation, flow cytometry of surface activation markers (t-SNE); details: 125 nM antibody, 48 hours of stimulation
[5] = system: human monocyte-derived dendritic cells; assay: Internalisation of antibody into dendritic cells; details: 125 nM antibody

Sequence of Human CD40-avi (P25942 21-193): as the sequence (P25942 21-193 limits assumed) above
Sequence of CD40 ligand interaction with CD40 (P25942 21-277): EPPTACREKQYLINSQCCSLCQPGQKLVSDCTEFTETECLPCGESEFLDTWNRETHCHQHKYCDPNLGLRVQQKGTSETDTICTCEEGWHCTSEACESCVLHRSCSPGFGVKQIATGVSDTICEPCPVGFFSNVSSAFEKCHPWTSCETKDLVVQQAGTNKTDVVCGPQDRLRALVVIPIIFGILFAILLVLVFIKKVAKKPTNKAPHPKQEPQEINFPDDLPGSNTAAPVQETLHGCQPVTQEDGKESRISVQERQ
Sequence of CD40 on CD19+ cells (P25942 21-277): as above

Row | Molecule | Kd (IBIIICI scFv) [nM] | ka (IBIIICI scFv) [M⁻¹ s⁻¹] | kd (IBIIICI scFv) [s⁻¹] | Kd (14GIIICII scFv) [nM] | ka (14GIIICII scFv) [M⁻¹ s⁻¹] | kd (14GIIICII scFv) [s⁻¹] | other results
1 | FIGITELKKLES [UU74] | 0.12 | 280000 | 3.3e-05 | 1.7 | 570000 | 0.00095 | 
2 | FIGITELKKLESK [UU73] | 0.34 | 200000 | 6.7e-05 | 0.87 | 510000 | 0.00044 | 
3 | FIGITELKKLESKI [UU72] |  | 250000 |  | 0.6 | 570000 | 0.00034 | kd (1/s) (IBIIICI scFv): * (key: *: too low for, or very close to the detection limit of, instrument specification (<10^−5))
4 | FIGITELKKLESKIN [UU71] |  | 230000 |  | 0.6 | 540000 | 0.00032 | kd (1/s) (IBIIICI scFv): * (key: *: too low for, or very close to the detection limit of, instrument specification (<10^−5))
5 | FIGITELKKLESKINK [UU70] | 0.16 | 230000 | 3.7e-05 | 0.29 | 650000 | 0.00019 | 
6 | FIGITELKKLESKINKVF (SEQ ID NO: 25), C-term K-biotin; full length MTTE [UU24] | 0.12 | 190000 | 2.3e-05 | 0.3 | 660000 | 0.0002 | 
7 | X-SM083-ab-5: agonistic anti-CD40 antibody CP-870,893 (US 2017/0342159) as hIgG2 |  |  |  |  |  |  | Kd (Human CD40-avi): 18 nM; ka (Human CD40-avi): 62000 M⁻¹ s⁻¹; kd (Human CD40-avi): 0.0011 s⁻¹; binding to canine (dog) CD40 (canine (dog) CD40): does not bind to canine (dog) CD40; kd (Human CD40-Fc [1]): 3.6e-05 s⁻¹; Kd (Human CD40-Fc [1]; read-out: ^appKD): 0.2 nM; Ka (Human CD40-Fc [1]; optimised follow-up experiment): 190000 M⁻¹ s⁻¹; ka (Human CD40-Fc [2]): 66000 M⁻¹ s⁻¹; kd (Human CD40-Fc [2]): 3.2e-05 s⁻¹; competition with / blocking of CD40 ligand [3]: without blocking CD40 ligand interaction; 5C3-FITC staining after pre-incubation with antibody (CD40 on CD19+ cells): loss of the FITC signal; Ka (Canine CD40-Fc; Canine CD40-Fc, 1:1 Binding): 170000 M⁻¹ s⁻¹; kd (Canine CD40-Fc; Canine CD40-Fc, 1:1 Binding): 0.00041 s⁻¹; affinity for canine CD40 lower than for the human orthologue (Canine CD40-Fc; canine vs human CD40-Fc): approximately 10 times; binding to canine CD40 (Canine CD40-Fc; in words): exhibited binding to canine CD40; ka (Cynomolgus CD40-Fc): 91000 M⁻¹ s⁻¹; kd (Cynomolgus CD40-Fc): 2.5e-05 s⁻¹
8 | B1 |  |  |  |  |  |  | Kd (Human CD40-avi): 180 nM; ka (Human CD40-avi): 750000 M⁻¹ s⁻¹; kd (Human CD40-avi): 0.14 s⁻¹; agonistic profile, t-SNE cluster of surface expression of CD14, CD1a, CD40, HLA-DR, CD86 and CD83 [4]: potent agonistic profile; ka (Human CD40-Fc [2]): 320000 M⁻¹ s⁻¹; kd (Human CD40-Fc [2]): 0.0014 s⁻¹; Kd (Human CD40-Fc [2]; read-out: ^appKD, Human CD40-Fc, apparent affinity, 1:1 Langmuir model): 4.6 nM; competition with / blocking of CD40 ligand [3]: No competition between this antibody and CD40 ligand was observed; ka (Cynomolgus CD40-Fc): 490000 M⁻¹ s⁻¹; kd (Cynomolgus CD40-Fc): 0.0018 s⁻¹; Kd (Cynomolgus CD40-Fc; read-out: ^appKD, Cynomolgus CD40-Fc, apparent affinity, 1:1 Langmuir model): 3.8 nM; internalisation ([5]; after 60 min at 37° C.): 50%; antibodies remained extracellular ([5]; after 4 h incubation): Approximately 30%
